Measurements published in US10494417B2, “Peptide inhibitors of BCR-ABL oligomerization” (University of Utah Research Foundation, priority 2014, dated 2019).
Entries after “also recorded” stand apart in the source; their conditions may differ.

Tests used:
K562 cells [1] = assay: Proliferation/viability of transfected K562 cells (trypan blue exclusion); format: cell-based, human; settings: 72 h following transfection, trypan blue exclusion, vs mCherry control, n=1
Experimental: K562 cells, human leukemia Bcr-Abl^+ cells (gifted from Kojo Elenitoba-Johnson, University of Michigan), were grown in RPMI 1640 media supplemented with 10% FBS, 1% penicillin-streptomycin-glutamine, and 0.1% gentamicin (complete medium). […] Transfections were carried out two days following cell passaging. Then, 2.0×10^6 cells were collected and transfected with 6 μg pf pEGFP, pEGFP-CC^mut3, pmCherry, or pmCherry-CC^mut3 according to the Cell Line Nucleofector Kit V protocol, program T-013, using the Amaxa Nucleofector II (Lonza Group, Basel, Switzerland).
Cell counts were performed using a standard light microscope.
Two days following cell passaging, 2.0×10^6 cells were collected by centrifugation at 500×g for 10 min for each transfection group. Following cell collection, 6 lig DNA (pEGFP, pEGFP-CC, pEGFP-CCmut3, pEGFP-Helix2WT, pEGFP-Helix2mut3, pmCherry, pmCherry-CCmut3, or pmCherry-CappedHelix2mut3) was transfected into cells according to the Cell Line Nucleofector® Kit V protocol (program T-013) using the Amaxa Nucleofector II (Lonza Group, Basel, Switzerland). Following transfection, the DNA/cell mixture was added to 10 mL Complete RPMI 1640 media and allowed to incubate at 37° C. for 24, 48, or 72 h until analysis, depending on the assay.
(§1) Forty-eight or 72 h following transfection, 100 μL of treated K562 or Ba/F3-p210 cells was mixed with 100 μL trypan blue solution (Life Technologies). The numbers of viable cells (those impermeable to the trypan blue dye) from four different quadrants in an INCYTO™ C-CHIP™ Neubauer hemacytometer (VWR International, Radnor, Pa., USA) were counted using a standard light microscope. Quadrant counts were then averaged to obtain the number of viable cells per mL. For experiments using the Helix2mut3 construct, counts were performed on one aliquot per transfection (n=3 in replicate). In experiments involving the CappedHelix2mut3 construct, counts were performed three times using separate 100 pt aliquots from one transfection (n=1 in triplicate).

K562 cells [2] = assay: Colony forming assay of transfected K562 cells; format: cell-based, human; settings: for colony formation (transformative ability), in words: construct delivered as a gene by transfection, vs EGFP (and WT) control
Experimental: Both EGFP and EGFP-CC^mut3 were transfected into separate groups of cells on day 0. One day following transfection, 1.0×10^6 cells per treatment group were collected and re-suspended in 1.0 mL of PBS. Through serial dilutions, 1.0×10^3 cells in IMDM (Isocove's modified Dulbecco's media) with 2% FBS were seeded into methylcellulose medium in the absence of cytokines (MethoCult H4230 for K562 cells and MethoCult M3234 for p210 and p210-T315I cells) or in the presence of cytokines (MethoCult GF M3434 for parental Ba/F3 cells). Ponatinib was then added in the correct molar amounts (0, 100 pM, 1 nM, or 10 nM) to the methylcellulose medium. Colonies formed were counted after 7 days of incubation. All reagents were purchased from Stem Cell Technologies, Vancouver, BC, Canada. Assay was run three separate times (n=3) in duplicate.
(§2) Briefly, K562 or Ba/F3-p210 cells were transfected according to the protocol above. One day following transfection, 1.0×10^6 cells per transfection group were collected and re-suspended in sterile PBS. […] Finally, 1.1 mL of cell/methylcellulose mixture was seeded in duplicate and allowed to grow at 37° C. and 5% CO2 for 7 days. Colony formation was assessed by counting colonies in two 200 μm2 areas on the plate. Experiments were performed once in duplicate (n=1 in duplicate). All kit reagents and media were purchased from Stem Cell Technologies (Vancouver, BC, Canada).

[3] = system: Ba/F3 cells expressing native BCR-ABL1 (Ba/F3-p210); assay: Colony forming assay of transfected Ba/F3-p210 cells; format: cell-based, mouse; settings: cappedHelix2mut3 study, n=1, data not shown
Experimental: as §2

Ba/F3-P210 cells = assay: Viability of transfected Ba/F3-p210 cells (trypan blue exclusion); format: cell-based, mouse; settings: 72 h following transfection, vs mCherry control, n=1
Experimental: Two days following cell passaging, 3.0×10^6 cells were collected by centrifugation at 750×g for 10 min for each transfection group. Following collection, 4 μg DNA was transfected into cells according to the Cell Line Nucleofector® Kit V protocol (program X-001) using the Amaxa Nuelcofector II. Following nucleofection, the DNA/cell mixture was added to 500 μL plain RPMI and incubated for 20 min. After incubation, the 500 μL cell/DNA/RPMI mixture was added to complete RPMI 1640 media and allowed to incubate at 37° C. for 72 h until analysis.
as §1

[4] = system: CD34+ cells from newly diagnosed CML patients; assay: Colony forming assay of CD34+ cells from newly diagnosed CML patients; format: cell-based, human; settings: day 14 CFU-GM; lentiviral CCmut3 or 2.5 μM imatinib vs EV
Experimental: Primary cells were seeded in Methocult H4230 (Stem Cell Technologies) as described previously (Fleischman, A. G., et al. (2011). Blood 118, 6392-6398). Briefly, lentivirus-infected (GFP^+) cells were isolated by FACS and resuspended in RPMI1640. Cells were plated in Methocult H4230 at 1,000 cells/mL supplemented with 1× StemSpan CC100 cytokine mix (StemCell Technologies) with or without TKI as indicated in each experiment. Plates were incubated at 37° C. in a 5% CO2 humidified incubator for 14 days. Colony forming units of granulocyte-macrophage (CFU-GM) were counted on day 14 using an inverted microscope.
Following selection of transfected cells by cell sorting, methylcellulose colony assays were performed by plating in 0.9% methylcellulose (Stem Cell Technologies; M3234 for Ba/F3 BCR-ABL1 native and mutant lines; M3434 for Ba/F3 parental cells; H4230 for CML patient samples). mCherry-positive Ba/F3 cells (1.1×10^3 cells/plate) or GFP-positive primary CML CD34+ cells (1×10^3 cells/plate) were seeded per dish in duplicate. In the case of CML patient samples, cells were plated in the presence of 1× StemSpan CC100 cytokine cocktail (StemCell Technologies). All cells were plated with or without the indicated TKI in three or more independent experiments. Plates were incubated at 37° C. in a 5% CO2 humidified incubator. Colonies were counted 7-14 days later in an area of 50 μm2 per dish using an inverted microscope.

[5] = system: CML CD34+ cells expressing BCR-ABL1T315I; assay: Colony forming assay of primary CML CD34+ cells expressing BCR-ABL1T315I (samples R1, R2); format: cell-based, human; settings: sample R1 (accelerated phase); lentiviral CCmut3 or 10 nM ponatinib vs EV
Experimental: Mononuclear cells (MNCs) were separated from the peripheral blood of patients with newly diagnosed or therapy-resistant CML with a documented T315I mutation, using Ficoll (Nycomed, Oslo, Norway). Isolation of the CD34^+ fraction was done on an autoMACS Pro (Miltenyi Biotech). […] Cells were infected with lentivirus at a multiplicity of infection (MOI) of 5 for each construct at 24 and 48 hours following harvest (fresh cells) or thaw (frozen cells). Cells were sorted on a BD FACSAria cytometer after 72 h, and GFP-positive cells were returned to culture medium for future experiments. All patients gave their informed consent in accordance with the Declaration of Helsinki, and all studies with human specimens were approved by The University of Utah Institutional Review Board (IRB).
Briefly, lentivirus-infected (GFP^+) cells were isolated by FACS and resuspended in RPMI1640. […] Plates were incubated at 37° C. in a 5% CO2 humidified incubator for 14 days. Colony forming units of granulocyte-macrophage (CFU-GM) were counted on day 14 using an inverted microscope.
All cells were plated with or without the indicated TKI in three or more independent experiments. Plates were incubated at 37° C. in a 5% CO2 humidified incubator. Colonies were counted 7-14 days later in an area of 50 μm2 per dish using an inverted microscope.

[6] = system: CML CD34+ cells expressing BCR-ABL1T315I; assay: Liquid culture of primary T315I CML cells; format: cell-based, human; settings: CC^mut3 or increasing concentrations of ponatinib (FIG. 28C)
Experimental: Cell proliferation was assessed using the CellTiter 96® AQueous One Solution Cell Proliferation Assay (MTS assay, Promega) according to manufacturer instructions. Briefly, 5,000 viable cells were added to a single well in 96-well plate in 100 μL RPMI1640. Three independent samples were seeded in duplicate for each time point. […] In some experiments, cell proliferation was assessed using a Neubauer chamber and trypan blue dye exclusion.

[7] = Phase III trial for first-line therapy in CML patients, discontinued; cited from earlier work
K562 cells [8] = assay: Nuclear (DNA) segmentation apoptosis assay in transfected K562 cells; format: cell-based, human; settings: 48 h, vs EGFP control
Experimental: CC^mut3 was then tested for its ability to induce apoptosis in K562 cells. Apoptosis was observed using 3 different methods: 1) nuclear segmentation; 2) induction of the effector Caspase-3/7; and 3) 7AAD/Annexin V staining.
Nuclear segmentation analysis was performed as previously described (16). Briefly, immediately prior to cellular analysis, 2-well live cell chambers were treated for 15 min with poly-L-lysine (Sigma-Aldrich, St. Louis, Mo., USA), to allow cell adhesion in the wells. Forty-eight h following transfection, the transfected K562 cells were transferred to the pretreated 2-well live cell chambers. Cells were incubated for 15 min at 37° C. following the addition of 0.3 μL Hoechst H33342 nuclear stain (Life Technologies, Carlsbad, Calif., USA). Cells were then imaged using an inverted fluorescence microscope (Olympus IX701F, Scientific Instrument Co., Sunnyvale, Calif., USA) equipped with an F-view Monochrome CCD camera. Fields of view were selected based on EGFP fluorescence when viewing using a 40× oil immersion objective. Nuclei from cells that were positively transfected (positive for EGFP fluorescence) were categorized as either healthy (round or kidney-shaped nuclei) or segmented (punctate staining of nuclei), and the percentage of cells with segmented DNA was calculated (n=3 in replicate).

cappedHelix2mut3: residues 27-68: α-helix2 of BCR-ABL CC domain with capping residues S27 and G68 and CCmut3 mutations (SVGDIEQELERAEARIRRDEQRVNQERFRMIYLETLLAKEKG)
proliferation/viability of K562 cells (K562 cells [1]): failed to out-perform the negative control; also recorded: did not display inhibition of cell proliferation; also recorded: no evidence of BCR-ABL inhibition
colony formation (K562 cells [2]; cappedHelix2mut3 study, n=1, data not shown): failed to out-perform the negative control; also recorded: same pattern as in the cell proliferation studies
colony formation [3]: same pattern as in the cell proliferation studies
proliferation/viability of Ba/F3-p210 cells (Ba/F3-P210 cells): replicated to a similar extent; also recorded: no evidence of BCR-ABL inhibition

Cc1ccc(NC(=O)c2ccc(CN3CCN(C)CC3)cc2)cc1Nc1nccc(-c2cccnc2)n1 [imatinib, reference compound]
colony formation, in words [4]: equally effective in reducing colony number

Cc1ccc(C(=O)Nc2ccc(CN3CCN(C)CC3)c(C(F)(F)F)c2)cc1C#Cc1cnc2cccnn12 [ponatinib, 3-[2-(imidazo[1,2-b]pyridazin-3-yl)ethynyl]-4-methyl-N-{4-[(4-methylpi-perazin-1-yl)methyl]-3-(trifluoromethyl)phenyl}benzamide, reference compound]
reduction of colony formation [5]: 47%
effect in liquid culture [6]: no effect
patients with serious side effects [7]: ~12%

helix2 domain: helix2 domain (amino acids 28-67) with the CC^mut3 mutations, delivered as a gene via nucleofection (MELRSVGDIEQELERAEARIRRDEQRVNQERFRMIYLETLLAKEKKSYDR)
colony formation (transformative ability), in words (K562 cells [2]): sufficient to inhibit colony formation in K562 cells

Helix2mut3: residues 23-72: α-helix2 of BCR-ABL CC domain plus five flanking residues each end, with CCmut3 mutations (MELRSVGDIEQELERAEARIRRDEQRVNQERFRMIYLETLLAKEKKSYDR)
colony formation, of EGFP control (K562 cells [2]; 7 days after seeding, normalized to EGFP control, n=1 in duplicate): approximately 67%
colony formation (transformative ability), in words (K562 cells [2]): outperformed negative control EGFP; also recorded: showed inhibitory activity; also recorded: prevented outgrowth of colonies to a greater extent than the EGFP control, however, not as well as the full length CCmut3
induction of apoptosis (nuclear/DNA segmentation) (K562 cells [8]): outperformed negative control EGFP; also recorded: statistically significant increase in apoptosis; also recorded: apoptosis was induced to a similar extent between both CCmut3 and Helix2mut3; also recorded: significantly induced apoptosis
